Reference: patent US9072301B2 (priority 2012, dated 2015)

melting point [°C]	SMILES
159	CC1OC(=O)c2ncnc(NCCc3ccc(Oc4ccnc(C(F)(F)F)c4)cc3F)c21 (centres unmarked)
178	COc1cc(CCNc2ncnc3cnn(C)c23)ccc1Oc1ccnc(C(F)(F)F)c1 [I-10, N-[2-[3-methoxy-4-[[2-(trifluoromethyl)-4-pyridyl]oxy]phenyl]ethyl]-1-methyl-pyrazolo[4,3-d]pyrimidin-7-amine]
